Measurements: patent publication US20220396819A1, “METHOD FOR PRODUCING PEPTIDE HAVING PHYSIOLOGICAL ACTIVITY, AND PEPTIDE COMPRISING SHORT LINKER” (priority 2019, published 2022)
Read-outs that look alike come from different tables or passages of the source. Positions of bridges follow the written chain, without caps; N, C: chain ends. No end group written: not given here.

Biological target: T1, EpoR (Homo sapiens, UniProt P19235)
T1 construct: host or cells: cells included in the PathHunter eXpress EpoR-JAK2 Functional Assay Kit
T1 sequence (P19235 25-508): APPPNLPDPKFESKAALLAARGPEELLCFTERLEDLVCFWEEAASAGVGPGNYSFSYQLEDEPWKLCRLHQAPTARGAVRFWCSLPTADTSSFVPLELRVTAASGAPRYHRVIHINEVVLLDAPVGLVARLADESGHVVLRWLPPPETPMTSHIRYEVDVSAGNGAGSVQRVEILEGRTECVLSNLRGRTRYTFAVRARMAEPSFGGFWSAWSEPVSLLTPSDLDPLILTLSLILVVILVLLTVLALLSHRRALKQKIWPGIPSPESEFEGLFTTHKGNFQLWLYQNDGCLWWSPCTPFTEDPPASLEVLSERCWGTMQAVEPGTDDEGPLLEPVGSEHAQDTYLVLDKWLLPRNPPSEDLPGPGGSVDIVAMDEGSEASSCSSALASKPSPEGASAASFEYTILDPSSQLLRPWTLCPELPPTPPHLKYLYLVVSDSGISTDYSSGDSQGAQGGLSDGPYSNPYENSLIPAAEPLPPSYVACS
Assay: EpoR activation ability, PathHunter eXpress EpoR-JAK2 Functional Assay Kit
Format: cell-based
Details: for maximum activation ability compared with rhEPO: Example 22, FIG. 35; for EpoR activation, concentration dependence: culture supernatant, FIGS. 35, 55 to 57, 61; for EpoR activation, relative activity among linker lengths: Example 38, cell-free translation solution, FIG. 70
Procedure: The EpoR activation ability of the EPO-PAS dimer peptide was evaluated using PathHunter (registered trademark) eXpress EpoR-JAK2 Functional Assay Kit (DiscoverX).
(§1) Cells for EPO activity evaluation included in PathHunter (registered trademark) eXpress EpoR-JAK2 Functional Assay Kit were seeded on a 96-well plate and cultured for 24 hours at 37° C. under 5% CO2. […] As a negative control, the culture supernatant (FIG. 32, lane 18) obtained by culturing as described in Example 20 except for using a vector containing no gene for expressing the EPO-PAS dimer peptide, diluted at the same ratio as the culture supernatant containing AET-EPO-PAS8 or AET-EPO-PAS22, was added. The prepared Substrate Reagent was added to the cells stimulated at room temperature for 3 hours, and the cells were incubated for 60 minutes. The chemiluminescence intensity was quantified with a Nivo plate reader (Perkin Elmer).
The EpoR activation ability of the EPO-PAS dimer peptide linker variant was evaluated using PathHunter (registered trademark) eXpress EpoR-JAK2 Functional Assay Kit (DiscoverX).
as §1, with “48,” for “32,”, “26)” for “18)”, “30” for “20”
The EpoR activation ability of the stabilized EPO-PAS dimer peptide was evaluated using PathHunter (registered trademark) eXpress EpoR-JAK2 Functional Assay Kit (DiscoverX).
Cells for EPO activity evaluation included in PathHunter (registered trademark) eXpress EpoR-JAK2 Functional Assay Kit were seeded on a 96-well plate and cultured for 24 hours at 37° C. under 5% CO2. To the cells, a culture supernatant containing 14.2 μg/L to 220 pg/L AET-EPO-PAS22, AET-EPO-PAS22-PAS200, or AET-EPO-PAS22-PAS600 (cultured as described in Example 20 or 33) was added. As a negative control, the culture supernatant (FIG. 58, lane 20) obtained by culturing as described in Example 33 except for using a vector containing no gene for expressing the EPO-PAS dimer peptide, diluted at the same ratio as the culture supernatant containing AET-EPO-PAS22, AET-EPO-PAS22-PAS200, or AET-EPO-PAS22-PAS600, was added. The prepared Substrate Reagent was added to the cells stimulated at room temperature for 3 hours, and the cells were incubated for 60 minutes. The chemiluminescence intensity was quantified with a Nivo plate reader (Perkin Elmer).
Cells for EPO activity evaluation included in PathHunter (registered trademark) eXpress EpoR-JAK2 Functional Assay Kit were seeded on a 96-well plate and cultured for 24 hours at 37° C. under 5% CO2. To the cells, a cell-free translation solution with translated AET-EPO-PAS8, AET-EPO-PAS49-b, or AET-EPO-PAS100-b diluted to a predetermined concentration was added. As a negative control, a cell-free translation solution with untranslated peptide, diluted at the same ratio as the cell-free translation solution with translated AET-EPO-PAS8, AET-EPO-PAS49, or AET-EPO-PAS100, was added. The prepared Substrate Reagent was added to the cells stimulated at room temperature for 3 hours, and the cells were incubated for 60 minutes. The chemiluminescence intensity was quantified with a Nivo plate reader (Perkin Elmer).

[1] = Example 22, Table 4, dimers as culture supernatant, read-out: EC50 (g/L) (converted)
[2] = Example 35, Table 7, AET-EPO-PAS22 value is that of Example 22

AETGGLYACHMGPMTWVCQPLRGAAPAAPAPAAPAAPAPAAPAAPAPAAPAAPAPAAPAAPAPAAPAAPAPAGGLYACHMGPMTWVCQPLRG (disulfide 9-18, 78-87) [AET-EPO-PAS49]
EC50 (read-out: EC50 (g/L) (converted)): 0.501 nM

AETGGLYACHMGPMTWVCQPLRGAAPAAPAPAAPAAPAPAAPAAPGGLYACHMGPMTWVCQPLRG (disulfide 9-18, 51-60) [AET-EPO-PAS22]
maximum activation ability compared with rhEPO: almost the same as that of rhEPO
EC50 [1]: 0.0531 nM
EpoR activation, concentration dependence: activated EpoR in a concentration-dependent manner

AETGGLYACHMGPMTWVCQPLRGAAPAAPAPGGLYACHMGPMTWVCQPLRG (disulfide 9-18, 37-46) [AET-EPO-PAS8]
maximum activation ability compared with rhEPO: almost the same as that of rhEPO
EC50 [1]: 0.036 nM
EpoR activation, concentration dependence: activated EpoR in a concentration-dependent manner

AETGGLYACHMGPMTWVCQPLRGGGGGSGGGGGLYACHMGPMTWVCQPLRG (disulfide 9-18, 37-46) [AET-EPO-GS8]
EC50: 0.103 nM

AETGGLYACHMGPMTWVCQPLRGGGGGSGGGGSGGGGSGGGGSGGGGLYACHMGPMTWVCQPLRG (disulfide 9-18, 51-60) [AET-EPO-GS22]
EC50: 0.216 nM

MAETGGLYACHMGPMTWVCQPLRGAAPAAPAPGGLYACHMGPMTWVCQPLRG (disulfide 10-19, 38-47) [MAET-EPO-PAS8]
EpoR activation, relative activity among linker lengths: higher activity than MAET-EPO-PAS100-b

B1: MAETGGLYACHMGPMTWVCQPLRGSAPSPSSAPASASAPASPASASASASPASSPASASSASPAASSASPASSGGLYACHMGPMTWVCQPLRG (peptide)
chain: MAETGGLYACHMGPMTWVCQPLRGSAPSPSSAPASASAPASPASASASASPASSPASASSASPAASSASPASSGGLYACHMGPMTWVCQPLRG
modifications: MAET-EPO-PAS49-b; DISULFID (10)..(19) Disulfid bridge between Cys-10 and Cys-19; DISULFID (79)..(88) Disulfid bridge between Cys-79 and Cys-88
EpoR activation, relative activity among linker lengths: higher activity than MAET-EPO-PAS100-b

B2: AET-EPO-PAS100: EPO-PAS dimer peptide linker variant, PAS linker of 100 amino acids, SEQ ID NO: 128 (protein)
chain: AETGGLYACHMGPMTWVCQPLRGAAPAAPAPAAPAAPAPAAPAAPAPAAPAAPAPAAPAAPAPAAPAAPAPAAPAAPAPAAPAAPAPAAPAAPAPAAPAAPAPAAPAAPAPAAPAAPAPAAPAGGLYACHMGPMTWVCQPLRG
EC50 (Example 32, Table 6, rhEPO, AET-EPO-PAS8, AET-EPO-PAS22 values are those in Example 22): 6.6 ng/mL

B3: AET-EPO-PAS22-PAS600: stabilized EPO-PAS dimer peptide, PAS600 bound to the C-terminus of AET-EPO-PAS22, SEQ ID NO: 145 (protein)
chain: AETGGLYACHMGPMTWVCQPLRGAAPAAPAPAAPAAPAPAAPAAPGGLYACHMGPMTWVCQPLRGAAPAAPAPAAPAAPAPAAPAAPAPAAPAAPAPAAPAAPAPAAPAAPAPAAPAAPAPAAPAAPAPAAPAAPAPAAPAAPAPAAPAAPAPAAPAAPAPAAPAAPAPAAPAAPAPAAPAAPAPAAPAAPAPAAPAAPAPAAPAAPAPAAPAAPAPAAPAAPAPAAPAAPAPAAPAAPAPAAPAAPAPAAPAAPAPAAPAAPAPAAPAAPAPAAPAAPAPAAPAAPAPAAPAAPAPAAPAAPAPAAPAAPAPAAPAAPAPAAPAAPAPAAPAAPAPAAPAAPAPAAPAAPAPAAPAAPAPAAPAAPAPAAPAAPAPAAPAAPAPAAPAAPAPAAPAAPAPAAPAAPAPAAPAAPAPAAPAAPAPAAPAAPAPAAPAAPAPAAPAAPAPAAPAAPAPAAPAAPAPAAPAAPAPAAPAAPAPAAPAAPAPAAPAAPAPAAPAAPAPAAPAAPAPAAPAAPAPAAPAAPAPAAPAAPAPAAPAAPAPAAPAAPAPAAPAAPAPAAPAAPAPAAPAAPAPAAPAAPAPAAPAAPAPAAPAAPAPAAPAAPAPAAPAAPAPAAPAAPAPAAPAAPAPAAPAAPAPAAPAAPAPAAPAAPAPAAPAAPAP
EC50 [2]: 0.32 ng/mL

B4: AET-EPO-PAS22-PAS200: stabilized EPO-PAS dimer peptide, PAS200 bound to the C-terminus of AET-EPO-PAS22, SEQ ID NO: 144 (protein)
chain: AETGGLYACHMGPMTWVCQPLRGAAPAAPAPAAPAAPAPAAPAAPGGLYACHMGPMTWVCQPLRGAAPAAPAPAAPAAPAPAAPAAPAPAAPAAPAPAAPAAPAPAAPAAPAPAAPAAPAPAAPAAPAPAAPAAPAPAAPAAPAPAAPAAPAPAAPAAPAPAAPAAPAPAAPAAPAPAAPAAPAPAAPAAPAPAAPAAPAPAAPAAPAPAAPAAPAPAAPAAPAPAAPAAPAPAAPAAPAPAAPAAPAPAAPAAPAPAAPAAPAP
EC50 [2]: 0.85 ng/mL
